Here are results for five molecules from PMC2763043 (ACS chemical biology, 2009).

Structures are written as SMILES.

For series [1], the system named is MDA-kb2 cells. As to the kind of experiment: Cytotoxicity in MDA-kb2. The format is cell-based. The conditions noted are these: Cell-Titer Glo, 20 hours.
Series [2] concerns AR. The conditions noted are these: cited from earlier work.
Series [3] has as its target Androgen Receptor (AR) (Homo sapiens, UniProt P10275). Put plainly: AR transcription reporter assay. Type of series: cell-based. To be noted: 0.2 nM DHT.
In series [4] the target is T1, AR-LBD (Homo sapiens, UniProt P10275).
T1 sequence (P10275 663-919): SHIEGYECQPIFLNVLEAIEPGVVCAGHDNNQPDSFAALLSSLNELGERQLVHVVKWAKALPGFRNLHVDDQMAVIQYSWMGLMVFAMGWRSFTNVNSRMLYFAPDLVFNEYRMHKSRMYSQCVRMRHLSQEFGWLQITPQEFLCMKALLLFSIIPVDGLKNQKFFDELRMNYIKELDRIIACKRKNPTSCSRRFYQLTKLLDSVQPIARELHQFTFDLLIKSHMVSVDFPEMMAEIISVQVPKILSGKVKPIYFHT
Put plainly: Scintillation Proximity Assay, [3H]-DHT displacement from AR-LBD. Type of series: binding. To be noted: SPA. For orientation: In a scintillation proximity assay essentially only radioactivity close to the scintillant gives light.

Series [5] in a line: PAMPA permeability and membrane retention. The conditions noted are these: 0.5% DMSO, pH 7.4. In general terms: PAMPA measures passive passage across an artificial lipid membrane.
The subject of series [6] is FKBP51. As to the kind of experiment: Real time rt-PCR of FKBP51, 18S and GAPDH in MDA-kb2. The conditions noted are these: 0.2 nM DHT, MDA-kb2, control experiments. The format is cell-based.
A short description of series [7]: in vitro. To be noted: PAMPA, pH 7.4.

Chain of Androgen Receptor (AR) (P10275 whole entry, the tested form may be a part): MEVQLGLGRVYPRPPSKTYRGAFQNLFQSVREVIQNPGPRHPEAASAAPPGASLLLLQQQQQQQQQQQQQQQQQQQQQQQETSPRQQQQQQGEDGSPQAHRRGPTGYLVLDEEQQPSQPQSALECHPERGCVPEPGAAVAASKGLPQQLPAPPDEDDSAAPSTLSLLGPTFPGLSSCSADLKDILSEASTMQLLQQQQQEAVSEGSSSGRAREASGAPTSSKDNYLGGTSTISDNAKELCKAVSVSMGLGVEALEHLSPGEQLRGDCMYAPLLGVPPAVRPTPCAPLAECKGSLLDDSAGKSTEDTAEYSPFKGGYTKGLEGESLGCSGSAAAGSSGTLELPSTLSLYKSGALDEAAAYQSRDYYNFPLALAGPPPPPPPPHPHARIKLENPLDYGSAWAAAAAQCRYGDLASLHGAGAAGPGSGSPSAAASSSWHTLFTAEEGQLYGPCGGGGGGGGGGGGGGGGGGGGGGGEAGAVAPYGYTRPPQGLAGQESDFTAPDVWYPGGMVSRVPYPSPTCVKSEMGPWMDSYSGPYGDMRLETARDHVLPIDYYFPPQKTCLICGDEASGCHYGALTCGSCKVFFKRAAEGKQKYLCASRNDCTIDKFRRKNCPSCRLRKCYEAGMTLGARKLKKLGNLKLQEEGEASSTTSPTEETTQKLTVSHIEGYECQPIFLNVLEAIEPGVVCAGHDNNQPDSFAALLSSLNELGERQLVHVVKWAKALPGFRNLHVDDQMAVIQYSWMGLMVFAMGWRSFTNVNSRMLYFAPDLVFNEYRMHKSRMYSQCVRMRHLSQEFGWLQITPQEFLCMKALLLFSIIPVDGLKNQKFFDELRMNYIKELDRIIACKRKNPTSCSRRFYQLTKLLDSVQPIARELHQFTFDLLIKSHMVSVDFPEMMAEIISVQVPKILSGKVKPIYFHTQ

For `CC(O)(CS(=O)(=O)c1ccc(F)cc1)C(=O)Nc1ccc(C#N)c(C(F)(F)F)c1` (centres unmarked) [Bicalutamide], the “Cytotoxicity (IC50) in MDA-kb2” value in series [1] is given as “Non toxic”.
Turning to `O=C(O)c1ccccc1Nc1cccc(C(F)(F)F)c1` [Compound 1, flufenamic acid], in series [2], the “Block of AR transcription activity” value is recorded as “able to block AR transcription activity”.
For the molecule `O=C(O)c1ccccc1Nc1ccc(Cc2ccccc2)cc1` [Compound 20], the “% inhibition (in brackets), transcriptional inhibition in MDA-kb2” value in series [3] is listed as 75%. In addition, in series [1], the “Cytotoxicity (IC50) in MDA-kb2” value is given as “Non toxic”. In addition, the “Binding to the DHT (hormone) binding site of AR-LBD, in words” value in series [4] is reported as “low micromolar range”. In addition, in series [5], the Permeability is 98 ± 31 10^‒6 cm s^‒1 and the Retention in membrane amounted to 89%.
As to `C[C@]12CCC(=O)C[C@@H]1CC[C@@H]1[C@@H]2CC[C@]2(C)[C@@H](O)CC[C@@H]12` [DHT, dihydrotestosterone], the FKBP51 induction in series [6] is recorded as 4–5 fold.
Take `CC(C)(O)C(=O)Nc1ccc([N+](=O)[O-])c(C(F)(F)F)c1` [Hydroxyflutamide]: the “Cytotoxicity (IC50) in MDA-kb2” value in series [1] is on record as “Non toxic”. Moreover, the apparent permeability (Papp) in series [7] was determined as 183 ± 29 ×10⁻⁶ cm/s. Besides, the Retention in membrane in series [5] is on record as 75%.

Usually Papp stands for the rate of passage across a membrane or cell layer, normalised by area and donor concentration. Low values mean slow passage, high ones fast passage.
